Consider 3 compounds from ChEMBL document CHEMBL2202998, “Investigations into specificity of azepinomycin for inhibition of guanase: discrimination between the natural heterocyclic inhibitor and its synthetic nucleoside analogues” (Bioorg Med Chem Lett, 2012).

Test [1] is described as follows: Competitive inhibition of rabbit liver guanase assessed as guanine hydrolysis rate by Lineweaver-Burk plot method. Also noted: species or system Oryctolagus cuniculus.
The target of test [2] is T1, Guanine deaminase (Homo sapiens, UniProt Q9Y2T3).
T1 sequence (Q9Y2T3 whole entry): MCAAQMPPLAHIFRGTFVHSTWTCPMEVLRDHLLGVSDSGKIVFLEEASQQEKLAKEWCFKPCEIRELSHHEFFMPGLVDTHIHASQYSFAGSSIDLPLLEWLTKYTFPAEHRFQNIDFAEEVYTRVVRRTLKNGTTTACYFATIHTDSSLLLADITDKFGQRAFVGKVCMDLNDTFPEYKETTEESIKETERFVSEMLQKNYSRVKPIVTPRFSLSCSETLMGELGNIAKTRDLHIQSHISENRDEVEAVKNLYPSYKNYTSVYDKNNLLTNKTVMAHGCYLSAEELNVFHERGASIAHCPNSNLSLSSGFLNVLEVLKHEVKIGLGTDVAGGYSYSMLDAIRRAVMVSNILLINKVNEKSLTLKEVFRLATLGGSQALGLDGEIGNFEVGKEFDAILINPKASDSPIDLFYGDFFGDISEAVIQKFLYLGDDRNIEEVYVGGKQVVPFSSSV
Put plainly: Inhibition of guanase.

For orientation: Ki means the dissociation constant of the complex between target and ligand, obtained from inhibition or displacement. In the case of `O=C1N[C@@H](O)CNc2c1ncn2[C@@H]1O[C@H](CO)[C@@H](O)[C@H]1O`, the Ki in test [1] was found to be 119 µM.

As for `O=C1N[C@H](O)CNc2c1ncn2[C@@H]1O[C@H](CO)[C@@H](O)[C@H]1O`, the Ki in test [1] was determined as 129 µM.

What is called IC50 is the concentration that gives 50% inhibition. Higher therefore signals weaker potency in that assay. For the compound `O=C1NC(O)CNc2nc[nH]c21` (racemic) [AZEPINOMYCIN], in test [1], the Ki amounted to 2.5 µM. The midpoint of inhibition in test [2], the IC50, lay at 5 µM.
